Laboratory results from patent US7892767B2, “Phosphospecific chemokine receptor antibodies” (Washington University in St. Louis, priority 2005, dated 2011).

Key:
CXCR4 [1] = target: T1, CXCR4 (Mus musculus, UniProt P70658); experiment: CXCL12-induced CXCR4 phosphorylation (pCXCR4 western blot), wild-type (Nf1+/+) astrocytes; type: cell-based; conditions: CXCL12 0.1 μg/ml, at 5 minutes
T1 construct: endogenous in cells; host or cells: primary mouse astrocytes (Nf1 flox/flox, infected with Ad-LacZ or Ad-Cre)
Procedure: (§1) Western Blot Analysis. Whole-cell extracts were obtained by lysing cells with lysis buffer (20 mM Tris pH 7.4, 137 mM NaCl, 10% Glycerol and 1% Triton-X-100) supplemented with phosphatase inhibitor cocktail set II (Calbiochem, La Jolla, Calif.), PMSF (1 mM), leupeptin, (0.005 mg/ml) and aprotinin (0.005 mg/ml). The proteins were resolved with 10% Bis-Tris gels (Invitrogen) and transferred onto the nitrocellulose membrane Hybond ECL (Amersham, Piscataway, N.J.) according to standard protocols. Membranes were incubated with polyclonal antibodies CXCR4 (1:500), pErk½ (1:1200), pan Erk½ (1:150), pAkt (1:500), pan Akt (1:1000), pGRK2 (1:250), and pCXCR4 (1:200) overnight at 4° C. This was followed by incubation with horseradish peroxidase-conjugated secondary antibody (1:15,000; Bio-Rad). Peroxide activity was detected using the enhanced chemiluminescence Supersignal West Dura system (Pierce, Rockford, Ill.) Mouse anti-actin antibody was used as a loading control. Quantitation of western blots was performed by densitometry using Image J software from the NIH.
(§2) Among the primary mechanisms for controlling GPCR effects on cAMP production is receptor desensitization (140). This process is initiated when ligand occupied GPCR (e.g., CXCR4) is phosphorylated by G protein receptor kinase (GRK). […]

[2] = test system: Daoy medulloblastoma cells; experiment: Intracellular cAMP by ELISA, Daoy medulloblastoma cells; type: cell-based, human; conditions: 1 μg/ml CXCL12
Procedure: (§3) Growth factor and drug treatment. Following serum-starvation for 24 hours, astrocytes, granule cells, U87 cells and Daoy cells, were treated with 1 μg/ml CXCL12 (PeproTech), […] AMD3465 (kind gift from Simon Fricker, AnorMED, Langley, BC, Canada) (200 μM Rolipram (Sigma), or 10 μM Forskolin (Sigma) as indicated.
cAMP measurement in cell culture. cAMP concentration was measured using a Correlated-EIA™. Enzyme Immunoassay Kit (Assay Designs Inc. MI) according to the manufacturer's instructions. Briefly, U87 or Daoy cells were serum-starved for 24 hours, and treated with CXCL12 (1 μg/ml), Rolipram (200 μM), or forskolin (10 μM). Cells were lysed in 0.1M HCL and particulate matter was removed by centrifugation at >600×g for 10 min. The supernatants were dried down and resuspended in assay buffer.
(§4) Determination of cAMP concentration. Competitive immunoassay for cAMP concentration was performed exactly as directed by the manufacturer. Absorbance at 405 nm was measured and cAMP concentrations were determined by calculation based on a standard curve. Protein concentrations were measured by colormetric assay (Bio-Rad, Hercules, Calif.) according to the manufacturer's directions. cAMP values were normalized to protein for each sample individually.

[3] = test system: cerebellar granule precursor cells (GPCs); experiment: Intracellular cAMP by ELISA, primary cerebellar granule precursor cells; type: cell-based, mouse; conditions: 1 μg/ml CXCL12
Procedure: (§5) Primary granule neuron cultures. Primary cultures of purified GPCs were prepared from 6 day-old BALB/C mice as described (58). Cerebella were dissected and meninges were removed. After incubation with 0.1% trypsin (Sigma) in HBSS with 125 units/ml Dnase (Sigma), 0.5 mM EDTA for 20 minutes at 37° C., cells were pelleted and washed three times with HBSS. The final cell suspension was passed through a […] nylon mesh cell strainer (Falcon, Franklin Lakes, Mich.). Cells were diluted to 2×10^6 cells/ml in DMEM/F12 (Gibco BRL, Gaithersburg, Md.) supplemented with N2 (Gibco BRL), 20 mM KCl, and 36 mM glucose.
as §3, §4

Nf1+/+ astrocytes = experiment: Cell number by trypan blue exclusion, Nf1+/+ astrocytes; type: cell-based, mouse; conditions: CXCL12 0.1 ug/ml (≈10 nM), 24 hours, vs untreated controls
Procedure: Culture and treatment of primary astrocytes. Primary cultures of astrocytes were prepared from post-natal day two Nf1^flox/flox mice as previously described (134) and in accordance with established Animal Studies Protocols at Washington University School of Medicine. Cultures were infected with adenovirus containing either Cre recombinase (Nf1−/−) or LacZ (Nf1+/+). Primary cultures of astrocytes were grown under standard adherent conditions in serum free media (DMEM/F12 or Neurobasal (Gibco-BRL)) in the presence or absence of 0.1 μg/ml CXCL12 (Peprotech) and 10 μM Forskolin for 24 hours, as indicated. Cell number was determined after 24 hours by trypan blue exclusion and the growth effects of CXCL12 were derived as follows: ((cell number in the presence of CXCL12—cell number cell in the absence of CXCL12)/cell number in the absence of CXCL12)×100.)
To determine the biological significance of CXCR4 activation to NF1 glioma biology, we next sought to evaluate the regulation of CXCL12 growth effects by neurofibromin in astrocytes. While the true cell of origin of astrocytomas remains unknown, we utilized primary cultures of cortical astrocytes as a model of a normal counterpart to astrocytoma cells. Astrocytes were derived from Nf1^flox/flox mice and rendered Nf1+/+ or Nf1−/− by infection with adenovirus encoding LacZ or Cre recombinase, respectively.

GPCs = experiment: Cell number by trypan blue exclusion, primary GPCs; type: cell-based, mouse; conditions: CXCL12 1 μg/ml, 24 hours
Procedure: as §5, §3

CXCR4 [4] = target: T1, CXCR4; experiment: CXCL12-induced CXCR4 phosphorylation (pCXCR4 western blot), Nf1−/− astrocytes; type: cell-based; conditions: CXCL12 0.1 μg/ml, at 5 minutes
Procedure: as §1, §2

T1 sequence (P70658 whole entry): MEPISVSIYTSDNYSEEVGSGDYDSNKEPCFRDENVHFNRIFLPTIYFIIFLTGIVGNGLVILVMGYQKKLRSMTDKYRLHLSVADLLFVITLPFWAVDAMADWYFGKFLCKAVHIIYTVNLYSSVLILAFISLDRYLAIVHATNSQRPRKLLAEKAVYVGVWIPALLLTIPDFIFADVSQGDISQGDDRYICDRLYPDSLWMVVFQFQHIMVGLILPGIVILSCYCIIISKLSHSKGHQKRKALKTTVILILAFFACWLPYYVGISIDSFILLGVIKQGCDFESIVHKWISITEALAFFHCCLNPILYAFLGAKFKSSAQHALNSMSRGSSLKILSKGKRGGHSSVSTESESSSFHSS

Substance: CXCL12: chemokine ligand of CXCR4 (Peprotech)
- increase in pCXCR4 (CXCR4 [1]): 2.6+/−0.06 fold
- cyclic AMP levels after CXCL12 [2]: rapidly declined
- reduction in cAMP as compared to GPCs (area under the curve) [2]: 70%
- change in cAMP levels [3]: little to no change
- decrease in cell number (Nf1+/+ astrocytes): 10+/−5%
- effect on cell number (GPCs): no effect
- decrease in pCXCR4 (CXCR4 [4]): 0.56+/−0.14 fold
